Data from patent US12397167B2, “Compositions and methods of altering the electric impedance to an alternating electric field” (NOVOCURE GMBH, priority 2019, dated 2025).

Tested on: clathrin-dependent pathway or macro-pinocytosis pathway
Test: Effect of endocytosis pathway inhibitors on BTNP accumulation in cytoplasm in response to TTFields
Assay type: cell-based
Settings: specific inhibitors of clathrin-dependent or macro-pinocytosis pathway
From the text: Nanoparticles (NPs) internalization into cells is known to be dependent on particle size and its zeta potential. NPs under 200 nm can be engulfed by cancer cells through clathrin-dependent pathway or macro-pinocytosis pathway. […] The data herein evidences that increased membrane permeability by TTFields can induce BTNP accumulation in cytoplasm of cancer cells.

Compound	accumulation of BTNPs in cytoplasm in response to TTFields
C=C1[C@@H](C)[C@H]2[C@H](Cc3ccccc3)NC(=O)[C@]23[C@H](OC(C)=O)/C=C/[C@@](C)(O)C(=O)[C@@H](C)C/C=C/[C@H]3[C@@H]1O [cytochalasin D]	did not modulate
CN(C)CCCN1c2ccccc2Sc2ccc(Cl)cc21 [chlorpromazine]	did not modulate
N=C(N)NC(=O)c1nc(Cl)c(N)nc1N [amiloride]	did not modulate
